Assay results: patent US8853423B2, “Indane estrogen receptor modulators and uses thereof” (Seragon Pharmaceuticals, Inc., priority 2010, dated 2014)

Experiments:
Type in all cases: cell-based
ER-α [1] = biological target: T1, ER-α (Homo sapiens, UniProt P03372); experiment: ER-α in Cell Western Assay (SP1); settings: MCF-7 cells, SP1 rabbit monoclonal Ab, 4 or 24 hr post compound addition, read-out: ER In-Cell Western Assay (SP1); for Emax: MCF7, Max Response; for DC50: IC50
T1 construct: endogenous in cells; host or cells: MCF-7
T1 sequence (P03372 1-595): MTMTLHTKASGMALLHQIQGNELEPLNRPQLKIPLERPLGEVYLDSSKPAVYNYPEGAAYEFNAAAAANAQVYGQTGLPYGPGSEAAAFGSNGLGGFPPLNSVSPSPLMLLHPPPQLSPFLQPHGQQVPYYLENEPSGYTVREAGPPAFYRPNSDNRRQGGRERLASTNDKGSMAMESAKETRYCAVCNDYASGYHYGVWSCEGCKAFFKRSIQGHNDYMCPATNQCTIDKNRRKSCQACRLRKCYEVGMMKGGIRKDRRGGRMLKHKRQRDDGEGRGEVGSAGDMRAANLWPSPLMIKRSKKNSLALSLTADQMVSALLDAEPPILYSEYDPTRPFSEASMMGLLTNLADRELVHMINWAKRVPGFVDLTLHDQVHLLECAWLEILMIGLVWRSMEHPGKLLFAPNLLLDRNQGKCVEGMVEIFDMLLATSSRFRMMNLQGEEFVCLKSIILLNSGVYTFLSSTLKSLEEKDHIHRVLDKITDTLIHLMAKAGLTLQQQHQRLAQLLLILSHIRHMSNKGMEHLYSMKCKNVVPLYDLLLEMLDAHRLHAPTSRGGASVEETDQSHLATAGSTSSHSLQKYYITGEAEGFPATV
Experimental: (§1) MCF-7 cells were adjusted to a concentration of 200,000 cells per mL in RPMI containing 10% charcoal-stripped FBS and 20 mM HEPES. 16 microliters of the cell suspension (3200 cells) was added to each well of a poly-D-lysine 384 well plate, and the cells were incubated overnight to allow the cells to adhere. The following day an eleven point, serial semilog dilution of each compound was added to the cells in 16 μL at a final concentration ranging from 0.3-0.000003 μM. At 4 or 24 hr post compound addition, the cells were fixed (10% formalin in PBS) for 20 minutes. Cells were permeabalized in PBS 0.1% Triton and blocked with LICOR blocking buffer (50 μl/well, 90′). The wells were then incubated overnight at 4° C. with SP1 rabbit monoclonal Ab (Thermo Scientific) diluted 1:1000 in LICOR blocking buffer/0.1% Tween-20. Wells which were treated with blocking buffer with Tween but no antibody were used as a background control. Wells were washed with 0.1% Tween-20/PBS and then incubated in goat anti-rabbit IRDye™ 800CW (LICOR Inc.; 1:1000) and DRAQ5 DNA dye (1:2000 for 2 mM stock) diluted in LICOR blocking buffer containing 0.1% Tween-20 and 0.01% SDS for 60 minutes. Cells were washed (50 μl/well, 5′ each) in 0.1% Tween-20/PBS. Plates were scanned on a LICOR Odyssey infrared imaging system. Integrated intensities in the 800 nm channel and 700 nm channel were measured to determine levels of ER and DNA respectively. Percent ER levels were determined as follows: (Integrated intensity 800 nm sample/integrated intensity 700 nm sample)/(Integrated intensity 800 nm untreated cells/integrated intensity 700 nm untreated cells)×100=% ER levels.

ER-α [2] = biological target: T1, ER-α; experiment: ER-α in Cell Western Assay (ER1D5); settings: MCF-7 cells, ER1D5 antibody, 4 or 24 hr post compound addition, read-out: ER In-Cell Western Assay (ER1D5); for Emax: MCF7, Max Response; for DC50: IC50
Experimental: as §1, with “with ER1D5 (Santa Cruz Biotechnology)” for “with SP1 rabbit monoclonal Ab (Thermo Scientific)”, “diluted 1:100” for “diluted 1:1000”, “goat anti-mouse” for “goat anti-rabbit”

MCF-7 cells = experiment: Breast Cancer Cell Viability Assay (MCF7 Viability Assay, CellTiter-Glo); settings: 5 days' compound exposure; for IC50: Homo sapiens, MCF7, 120 h
Experimental: MCF-7 cells were adjusted to a concentration of 20,000 cells per mL in RPMI containing 10% FBS and 20 mM HEPES. 16 microliters of the cell suspension (320 cells) was added to each well of a 384 well plate, and the cells were incubated overnight to allow the cells to adhere. The following day an eleven point, serial semilog dilution of each compound was added to the cells in 16 μL at a final concentration ranging from 0.3-0.000003 μM. After 5 days' compound exposure, 16 μL of CellTiter-GLo (Promega, Madison Wis.) was added to the cells the relative luminescence units (RLUs) of each well was determined. CellTiter-Glo added to 32 μL of medium without cells was used to obtain a background value. The Percent viability of each sample was determined as follows: (RLU sample-RLU background/RLU untreated cells-RLU background)×100=% viability.

## Oc1ccc(C2Cc3cc(O)ccc3C2c2ccc(OCCN3CCCC3)cc2)cc1 (stereo not drawn) [Example 1, 2-(4-Hydroxyphenyl)-1-(4-(2-(pyrrolidin-1-yl)ethoxy)phenyl)-2,3-dihydro-1H-inden-5-ol]
ER-α [1]
  Emax: 60 to 85%
  DC50: ≤ 1 nM
ER-α [2]
  Emax: 40 to 65%
  DC50: ≤ 1 nM
MCF-7 cells
  MCF7 Viability Assay Max Response: ++ (++ = a single % value ≧50%)
  IC50: ≤ 1 nM

## C[C@@H]1CCN([C@@H](C)COc2ccc(C3c4ccc(O)cc4CC3c3ccc(O)cc3)cc2)C1 (stereo partly drawn) [Example 2, 2-(4-Hydroxyphenyl)-1-(4-((S)-2-((R)-3-methylpyrrolidin-1-yl)propoxy)phenyl)-2,3-dihydro-1H-inden-5-ol]
ER-α [1]
  Emax: ≥ 85%
  DC50: ≤ 1 nM
ER-α [2]
  Emax: ≥ 65%
  DC50: ≤ 1 nM
MCF-7 cells
  MCF7 Viability Assay Max Response: ++ (++ = a single % value ≧50%)
  IC50: ≤ 1 nM

## C[C@@H]1CCN([C@@H](C)COc2ccc(C3c4ccc(O)cc4CC3c3cccc(O)c3)cc2)C1 (stereo partly drawn) [Example 3, 2-(3-Hydroxyphenyl)-1-(4-((S)-2-((R)-3-methylpyrrolidin-1-yl)propoxy)phenyl)-2,3-dihydro-1H-inden-5-ol]
ER-α [1]
  Emax: ≥ 85%
  DC50: ≤ 1 nM
ER-α [2]
  Emax: ≥ 65%
  DC50: ≤ 1 nM
MCF-7 cells
  MCF7 Viability Assay Max Response: ++ (++ = a single % value ≧50%)
  IC50: ≤ 1 nM

## C[C@@H]1CCN([C@@H](C)COc2ccc(C3c4ccc(O)cc4CC3c3ccccc3)cc2)C1 (stereo partly drawn) [Example 4, 1-(4-((S)-2-((R)-3-Methylpyrrolidin-1-yl)propoxy)phenyl)-2-phenyl-2,3-dihydro-1H-inden-5-ol]
ER-α [1]
  Emax: ≥ 85%
  DC50: ≤ 1 nM
ER-α [2]
  Emax: ≥ 65%
  DC50: ≤ 1 nM
MCF-7 cells
  MCF7 Viability Assay Max Response: ++ (++ = a single % value ≧50%)
  IC50: ≤ 1 nM

## C[C@@H]1CCN([C@@H](C)COc2ccc(C3c4ccc(O)c(F)c4CC3c3ccc(O)cc3)cc2)C1 (stereo partly drawn) [Example 5, 4-Fluoro-2-(4-hydroxyphenyl)-1-(4-((S)-2-((R)-3-methylpyrrolidin-1-yl)propoxy)phenyl)-2,3-dihydro-1H-inden-5-ol]
ER-α [1]
  Emax: ≥ 85%
  DC50: ≤ 1 nM
MCF-7 cells
  MCF7 Viability Assay Max Response: ++ (++ = a single % value ≧50%)
  IC50: ≤ 1 nM

## C[C@@H]1CCN([C@@H](C)COc2ccc(C3c4ccc(O)cc4CC3c3ccc(F)cc3)cc2)C1 (stereo partly drawn) [Example 6, 2-(4-Fluorophenyl)-1-(4-((S)-2-((R)-3-methylpyrrolidin-1-yl)propoxy)phenyl)-2,3-dihydro-1H-inden-5-ol]
ER-α [1]
  Emax: ≥ 85%
  DC50: ≤ 1 nM
MCF-7 cells
  MCF7 Viability Assay Max Response: ++ (++ = a single % value ≧50%)
  IC50: > 1 nM

## Oc1ccc2c(c1)CC(c1ccccc1)C2c1ccc(OCCN2CCCC2)cc1 (stereo not drawn) [Example 7, 2-Phenyl-1-(4-(2-(pyrrolidin-1-yl)ethoxy)phenyl)-2,3-dihydro-1H-inden-5-ol]
ER-α [1]
  Emax: 60 to 85%
  DC50: ≤ 1 nM
MCF-7 cells
  MCF7 Viability Assay Max Response: ++ (++ = a single % value ≧50%)
  IC50: > 1 nM
